Source: US11304419B2, “Methods to induce heat stress tolerance in plants” (Valent BioSciences LLC, priority 2020, dated 2022)

What was measured:
Format in all cases: in vivo
Apogee wheat [1] = experiment: Heat stress tolerance in wheat following ACC application at Feekes stage 5 (Example 3); details: heat stress 34/28° C. 4 days; for % Reproductive Tillers / Fresh Weight / Total Dry Weight / Total Spike Number / Total Tiller Number / Δ Canopy Density: n = 8; for % Reproductive Tillers, percent increase over stress control / Fresh Weight, percent increase over stress control / Total Dry Weight, percent increase over stress control / Total Spike Number, percent increase over stress control / Total Tiller Number, percent increase over stress control / Δ Canopy Density, percent increase over stress control: vs stress control (no heat); for % Reproductive Tillers, percent increase over treatment control / Fresh Weight, percent increase over treatment control / Total Dry Weight, percent increase over treatment control / Total Spike Number, percent increase over treatment control / Total Tiller Number, percent increase over treatment control / Δ Canopy Density, percent increase over treatment control: vs treatment control (heat, no ACC)
Description: Apogee wheat was seeded into ProMix BX (Premier Horticulture) and grown in a growth cabinet under the following conditions: 24/18° C. day/night temperature under a 16/8 hour light/dark photoperiod. Plants were at Feekes stage 5 following the first set of growth conditions. Next, spray applications of 0, 0, 100 or 300 ppm ACC (n=8) were made using a track sprayer on Oct. 4, 2019. […] These conditions constitute significant heat stress. The other set of control plants (“stress control”) remained in the first growth cabinet. Finally, the plants were then returned to the first growth cabinet for about 14 days where plants reached Feekes stage 10.1 (head emergence). Plants were then destructively harvested and measured for total spike number, fresh weight, total reproductive tiller number, percent reproductive tillers, A canopy density and total dry weight. Percent reproductive tillers is calculated by dividing the number of reproductive tillers by the total number of spikes at harvest. A canopy density is calculated by subtracting the canopy density at treatment from the canopy density at harvest.

Apogee wheat [2] = experiment: Heat stress tolerance in wheat following ACC application during flowering; details: heat stress 36/30° C. 7 days, n = 8
Description: 24 pots of Apogee wheat were grown in a greenhouse under 3 consecutive growing conditions. First, the wheat was planted in ProMix® growth media and grown for about 6 weeks in a growth cabinet at 24/18° C. day/night temperature under a 16/8 hour light/dark photoperiod. Plants were at Feekes stage 10.4-10.5 (flowering stage) following the first set of growth conditions. Next, spray applications of 0, 30 or 100 ppm ACC (n=8) were made using a tank sprayer. Next, 2 days following treatment, the plants were transferred to a growth chamber at 36/30° C. day/night temperature under a 16/8-hour light/dark photoperiod for 7 days. These conditions constitute significant heat stress. Finally, the plants were then returned to growth chamber at 24/18° C. day/night temperature under a 16/8-hour light/dark photoperiod for about 5 additional weeks. Plants were then destructively harvested and measured for total spike number, spike weight, grain weight, yield per spike, A spike number and harvest index. A spike number is calculated by subtracting the number of reproductive tillers at treatment from the number of reproductive tillers at harvest. An increase in reproductive tillers is indicative of an increase in reproductive success. Harvest index is calculated by dividing pounds of grain by the total pounds of above ground biomass.

[3] = test system: dwarf variety of Brassica napus; experiment: Heat stress tolerance in Brassica napus following ACC application; details: heat stress 36/30° C. seven days; for Seed Number per Pod / Seed Yield per Pod / Single Seed Weight: n = 10; for Seed Number per Pod, percent increase over treatment control / Seed Yield per Pod, percent increase over treatment control / Single Seed Weight, percent increase over treatment control: vs treatment control
Description: A dwarf variety of Brassica napus commonly used as an experimental model for the canola variety of B. napus was seeded into ProMix BX (Premier Horticulture) and grown in a greenhouse. […] Following spraying, plants were moved to a growth cabinet under the following conditions: 24/18 C day night temperatures under a 16/8 light dark period. Next, 2 days following treatment, half of the plants were transferred to a second growth cabinet at 36/30° C. day/night temperature under a 16/8-hour light/dark photoperiod for seven days. These conditions constitute early season heat stress. At all times flowers and pods were pruned to keep the number of pods to about 10. Plants were then destructively harvested and measured for seed yield, seed numbers, seed yield per pod, seed number per pod and single seed weight.

[4] = 100 ppm ACC spray at Feekes stage 5
[5] = 300 ppm ACC spray at Feekes stage 5
[6] = 30 ppm ACC spray at Feekes stage 10.4-10.5
[7] = 100 ppm ACC spray at Feekes stage 10.4-10.5

NC1(C(=O)O)CC1 [ACC, 1-amino-1-cyclopropanecarboxylic acid]
% Reproductive Tillers (Apogee wheat [1]; [4]): 63.80% | Fresh Weight (Apogee wheat [1]; [4]): 17.95 grams | Total Dry Weight (Apogee wheat [1]; [4]): 4.31 grams | Total Spike Number (Apogee wheat [1]; [4]): 7 | Total Tiller Number (Apogee wheat [1]; [4]): 4.38 | Δ Canopy Density (Apogee wheat [1]; [4]): 2.65% | % Reproductive Tillers, percent increase over stress control (Apogee wheat [1]; 100 ppm ACC): (−11.5%) | Fresh Weight, percent increase over stress control (Apogee wheat [1]; 100 ppm ACC): (4.6%) | Total Dry Weight, percent increase over stress control (Apogee wheat [1]; 100 ppm ACC): (−5.5%) | Total Spike Number, percent increase over stress control (Apogee wheat [1]; 100 ppm ACC): (24.3%) | Total Tiller Number, percent increase over stress control (Apogee wheat [1]; 100 ppm ACC): (9.5%) | Δ Canopy Density, percent increase over stress control (Apogee wheat [1]; 100 ppm ACC): (3.5%) | % Reproductive Tillers, percent increase over treatment control (Apogee wheat [1]; 100 ppm ACC): [−0.8%] | Fresh Weight, percent increase over treatment control (Apogee wheat [1]; 100 ppm ACC): [5.8%] | Total Dry Weight, percent increase over treatment control (Apogee wheat [1]; 100 ppm ACC): [11.1%] | Total Spike Number, percent increase over treatment control (Apogee wheat [1]; 100 ppm ACC): [12.0%] | Total Tiller Number, percent increase over treatment control (Apogee wheat [1]; 100 ppm ACC): [12.9%] | Δ Canopy Density, percent increase over treatment control (Apogee wheat [1]; 100 ppm ACC): [5.2%] | % Reproductive Tillers (Apogee wheat [1]; [5]): 63.10% | Fresh Weight (Apogee wheat [1]; [5]): 16.74 grams | Total Dry Weight (Apogee wheat [1]; [5]): 4.33 grams | Total Spike Number (Apogee wheat [1]; [5]): 6.38 | Total Tiller Number (Apogee wheat [1]; [5]): 3.88 | Δ Canopy Density (Apogee wheat [1]; [5]): 2.36% | % Reproductive Tillers, percent increase over stress control (Apogee wheat [1]; 300 ppm ACC): (−12.5%) | Fresh Weight, percent increase over stress control (Apogee wheat [1]; 300 ppm ACC): (−2.4%) | Total Dry Weight, percent increase over stress control (Apogee wheat [1]; 300 ppm ACC): (−5.0%) | Total Spike Number, percent increase over stress control (Apogee wheat [1]; 300 ppm ACC): (13.3%) | Total Tiller Number, percent increase over stress control (Apogee wheat [1]; 300 ppm ACC): (−3.0%) | Δ Canopy Density, percent increase over stress control (Apogee wheat [1]; 300 ppm ACC): (−7.8%) | % Reproductive Tillers, percent increase over treatment control (Apogee wheat [1]; 300 ppm ACC): [−1.9%] | Fresh Weight, percent increase over treatment control (Apogee wheat [1]; 300 ppm ACC): [−1.4%] | Total Dry Weight, percent increase over treatment control (Apogee wheat [1]; 300 ppm ACC): [11.6%] | Total Spike Number, percent increase over treatment control (Apogee wheat [1]; 300 ppm ACC): [2.1%] | Total Tiller Number, percent increase over treatment control (Apogee wheat [1]; 300 ppm ACC): [0%] | Δ Canopy Density, percent increase over treatment control (Apogee wheat [1]; 300 ppm ACC): [−6.3%] | Grain Weight (Apogee wheat [2]; [6]): 3.1 grams | Harvest Index (Apogee wheat [2]; [6]): 0.32 | Spike Weight (Apogee wheat [2]; [6]): 5.39 grams | Total Spike Number (Apogee wheat [2]; [6]): 6.25 | Yield per Spike (Apogee wheat [2]; [6]): 0.5 grams | Δ Spike Number (Apogee wheat [2]; [6]): 1.75 | Grain Weight (Apogee wheat [2]; [7]): 3.37 grams | Harvest Index (Apogee wheat [2]; [7]): 0.34 | Spike Weight (Apogee wheat [2]; [7]): 5.69 grams | Total Spike Number (Apogee wheat [2]; [7]): 6.5 | Yield per Spike (Apogee wheat [2]; [7]): 0.53 grams | Δ Spike Number (Apogee wheat [2]; [7]): 2.13 | Seed Number per Pod ([3]; 10 ppm ACC spray at flowering): 14.8 | Seed Yield per Pod ([3]; 10 ppm ACC spray at flowering): 0.029 grams | Single Seed Weight ([3]; 10 ppm ACC spray at flowering): 0.0019 grams | Seed Number per Pod, percent increase over treatment control ([3]; 10 ppm ACC): [6.5%] | Seed Yield per Pod, percent increase over treatment control ([3]; 10 ppm ACC): [0%] | Single Seed Weight, percent increase over treatment control ([3]; 10 ppm ACC): [−9.5%] | Seed Number per Pod ([3]; 30 ppm ACC spray at flowering): 15.1 | Seed Yield per Pod ([3]; 30 ppm ACC spray at flowering): 0.033 grams | Single Seed Weight ([3]; 30 ppm ACC spray at flowering): 0.0021 grams | Seed Number per Pod, percent increase over treatment control ([3]; 30 ppm ACC): [8.6%] | Seed Yield per Pod, percent increase over treatment control ([3]; 30 ppm ACC): [13.8%] | Single Seed Weight, percent increase over treatment control ([3]; 30 ppm ACC): [0%] | Seed Number per Pod ([3]; 100 ppm ACC spray at flowering): 17.4 | Seed Yield per Pod ([3]; 100 ppm ACC spray at flowering): 0.036 grams | Single Seed Weight ([3]; 100 ppm ACC spray at flowering): 0.0020 grams | Seed Number per Pod, percent increase over treatment control ([3]; 100 ppm ACC): [25.2%] | Seed Yield per Pod, percent increase over treatment control ([3]; 100 ppm ACC): [24.1%] | Single Seed Weight, percent increase over treatment control ([3]; 100 ppm ACC): [−4.8%] | Seed Number per Pod ([3]; 300 ppm ACC spray at flowering): 15.6 | Seed Yield per Pod ([3]; 300 ppm ACC spray at flowering): 0.030 grams | Single Seed Weight ([3]; 300 ppm ACC spray at flowering): 0.0019 grams | Seed Number per Pod, percent increase over treatment control ([3]; 300 ppm ACC): [12.2%] | Seed Yield per Pod, percent increase over treatment control ([3]; 300 ppm ACC): [3.4%] | Single Seed Weight, percent increase over treatment control ([3]; 300 ppm ACC): [−9.5%]
